Series [1] concerns Peritoneal macrophage cell. As to the kind of experiment: Inhibition of IL-1beta production in LPS-induced mouse peritoneal macrophages at 50 uM incubated for 24 hrs by sandwich ELISA method. Format: functional, cell-based. (ELISA stands for enzyme-linked immunosorbent assay.)
Series [2] concerns Peritoneal macrophage cell. The experiment in a line: Inhibition of TNFalpha production in LPS-induced mouse peritoneal macrophages at 50 uM incubated for 24 hrs by sandwich ELISA method. It is filed as functional, cell-based.
Series [3] concerns Jurkat. As to the kind of experiment: Inhibition of TNFalpha expression in human Jurkat cells containing GFP gene under control of TNF gene promoter at 10 uM incubated for 24 hrs. Format: functional.
Series [4] concerns Jurkat. The experiment in a line: Induction of total cell death in human Jurkat cells containing GFP gene under control of TNF gene promoter at 100 uM incubated for 24 hrs by propidium iodide staining based assay.
The test system of series [5] is Jurkat. The experiment in a line: Induction of apoptosis in human Jurkat cells at 10 uM incubated for 24 hrs by FITC-labeled capsase-3 substrate based Nucview-488 caspase-3 assay. Format: functional, cell-based.
Series [6] has as its system Jurkat. The experiment in a line: Induction of total cell death in human Jurkat cells containing GFP gene under control of TNF gene promoter at 10 uM incubated for 24 hrs by propidium iodide staining based assay.
Series [7] deals with Jurkat. As to the kind of experiment: Inhibition of TNFalpha expression in human Jurkat cells containing GFP gene under control of TNF gene promoter at 100 uM incubated for 24 hrs. It is filed as functional.
The test system of series [8] is Jurkat. As to the kind of experiment: Inhibition of TNFalpha expression in human Jurkat cells containing GFP gene under control of TNF gene promoter at 100 uM incubated for 24 hrs relative to thalidomide. It is filed as functional.
Series [9] concerns Jurkat. As to the kind of experiment: Induction of apoptosis in human Jurkat cells at 100 uM incubated for 24 hrs by FITC-labeled capsase-3 substrate based Nucview-488 caspase-3 assay. It is filed as functional, cell-based.
Series [10] deals with Jurkat. The experiment in a line: Inhibition of TNFalpha expression in human Jurkat cells containing GFP gene under control of TNF gene promoter at 10 uM incubated for 24 hrs relative to thalidomide. It is filed as functional.
For series [11], the species on record is Mus musculus. As to the kind of experiment: Reduction in serum triglyceride levels in Swiss white mouse after 14 days. It is filed as functional.
The species entered for series [12] is Mus musculus. The experiment in a line: Reduction in serum cholesterol levels in Swiss white mouse after 16 days. Format: functional.
In series [13] the test system is Jurkat. As to the kind of experiment: Inhibition of TNFalpha expression in human Jurkat cells containing GFP gene under control of TNF gene promoter incubated for 24 hrs. It is filed as functional, cell-based.

Active and inactive are the calls of the source. The calls are words filed in the database; no cut-off is given here.

As usually defined, the inhibition is the drop in the measured response relative to a control, in per cent. Turning to `NNC(=O)[C@H](Cc1ccccc1)N1C(=O)c2ccccc2C1=O`, the inhibition entry in series [1] and in series [2] was “Active” in each case.
For the compound `C[C@@H](C(=O)O)N1C(=O)c2ccccc2C1=O`, the inhibition result in series [1] and in series [2] was “Active” in each case.
Compound `Nc1cccc2c1CN(C1CCC(=O)NC1=O)C2=O` (configuration not stated) [LENALIDOMIDE] showed an inhibition at 10 µM in the series on Jurkat [3] of 14%. For the same compound, the Activity result with Jurkat [4] and in the series on Jurkat [6] was “Non-toxic” in each case. Besides, the result in the series on Jurkat [5] and in the series on Jurkat [9] was Active. For the same compound, in the series with Jurkat [7], the inhibition at 100 µM came out at 14%. For the same compound, the “fold change (FC)” value in the series with Jurkat [8] and with Jurkat [10] was 2 throughout.
For the compound `COc1ccc(/C=N\NC(=O)[C@H](Cc2ccccc2)N2C(=O)c3ccccc3C2=O)cc1`, the inhibition entry in series [1] and in series [2] was “Active” each time.
For the compound `CC(=O)c1ccccc1N1C(=O)c2ccccc2C1=O`, the “inhibition (INH)” value in the series filed under Mus musculus [11] amounted to 44%; in the series filed under Mus musculus [12] it was 57%.
Compound `O=C1CCC(N2C(=O)c3ccccc3C2=O)C(=O)N1` (configuration not stated) [THALIDOMIDE] gave an inhibition at 10 µM in the series with Jurkat [3] of 5%. In addition, the Activity in the series with Jurkat [4] and with Jurkat [6] was 2% throughout. For the same compound, the inhibition result in series [1] and in [2] was “Active” each time. Besides, in the series on Jurkat [7], the inhibition at 100 µM was determined as 5%.
Turning to `O=C(N/N=C\c1ccccc1)[C@H](Cc1ccccc1)N1C(=O)c2ccccc2C1=O`, the inhibition entry with Jurkat [3] was “inactive”. For the same compound, the inhibition result in the series with Jurkat [13] is “Dose-dependent effect”. Further, the Activity entry in the series on Jurkat [4] is recorded as “Toxic”. Moreover, the inhibition entry in series [1] and in series [2] was “Active” throughout. Moreover, testing at 100 µM in the series with Jurkat [7] gave an inhibition of 17%. Also, in the series with Jurkat [8], the “fold change (FC)” value came to 3.
In the case of `C[C@@H](C(=O)NN)N1C(=O)c2ccccc2C1=O`, the inhibition entry in [1] and in series [2] was “Active” throughout.
Take `CC[C@H](C)[C@@H](C(=O)N/N=C\c1ccc(Cl)c(Cl)c1)N1C(=O)c2ccccc2C1=O`: in the series on Jurkat [3], the inhibition entry is “inactive”. For the same compound, the inhibition entry in the series on Jurkat [13] was “Dose-dependent effect”. Also, the figures for the Activity entry with Jurkat [4] and in the series with Jurkat [6] were “Toxic” and “Non-toxic”, respectively. The inhibition entry in series [1] and in series [2] was “Active” each time. The compound also gave an inhibition at 100 µM in the series on Jurkat [7] of 17%. The “fold change (FC)” value in the series with Jurkat [8] amounted to 3.
On to `C[C@@H](C(=O)N/N=C\c1ccc(Cl)c(Cl)c1)N1C(=O)c2ccccc2C1=O`, for which the inhibition result with Jurkat [3] and in the series with Jurkat [7] was “Active” throughout.
With `CCOC(=O)[C@H]([C@@H](C)CC)N1C(=O)c2ccccc2C1=O`, the inhibition result in [1] and in series [2] was “Active” throughout.
In the case of `C[C@@H](C(=O)N/N=C\c1ccc(Cl)cc1)N1C(=O)c2ccccc2C1=O`, the inhibition result in the series on Jurkat [3] and with Jurkat [7] was “Active” each time.
Consider `CCOC(=O)[C@H](C)N1C(=O)c2ccccc2C1=O`, for which the inhibition entry in series [1] and in series [2] was “Active” in each case.
For `CC[C@H](C)[C@@H](C(=O)N/N=C\c1ccccc1)N1C(=O)c2ccccc2C1=O`, the inhibition entry (with Jurkat [3]; in series [1]; in the series with Jurkat [7]; in series [2]) was “Active” each time. For the same compound, in the series with Jurkat [6], the Activity result is “Non-toxic”.
Take `O=C(N/N=C\c1ccc(Cl)cc1)[C@H](Cc1ccccc1)N1C(=O)c2ccccc2C1=O`: the inhibition entry in the series with Jurkat [3] and in the series on Jurkat [7] was “Active” throughout.
Regarding `CCOC(=O)[C@H](Cc1ccccc1)N1C(=O)c2ccccc2C1=O`, the inhibition entry in series [1] and in series [2] was “Active” throughout.
As to `C[C@@H](C(=O)N/N=C\c1ccccc1)N1C(=O)c2ccccc2C1=O`, at 10 µM the inhibition with Jurkat [3] was 9.8%. Also, the result in the series on Jurkat [5] and in the series on Jurkat [9] was inactive. Besides, the inhibition result in series [1] and in [2] was “Active” each time. Also, in the series with Jurkat [6], the Activity entry is reported as “Non-toxic”. The compound further had an inhibition at 100 µM in the series with Jurkat [7] of 9.8%.
On to `CC[C@H](C)[C@@H](C(=O)N/N=C\c1ccc(Cl)cc1)N1C(=O)c2ccccc2C1=O`, for which 10 µM produced 13% inhibition in the series with Jurkat [3]. The Activity entry with Jurkat [4] was “Toxic”. Moreover, the outcome in the series with Jurkat [5] and with Jurkat [9] was Active. Also, the inhibition result (in series [1]; in the series on Jurkat [7]; in series [2]) was “Active” throughout.
Consider `CC[C@H](C)[C@@H](C(=O)N/N=C\c1ccc(OC)cc1)N1C(=O)c2ccccc2C1=O`, for which the inhibition result in series [1] and in series [2] was “Active” each time.
Take `O=C(N/N=C\c1ccc(Cl)c(Cl)c1)[C@H](Cc1ccccc1)N1C(=O)c2ccccc2C1=O`: the inhibition result in the series on Jurkat [3] and in the series with Jurkat [7] was “Active” throughout. Further, the Activity entry with Jurkat [4] was “Toxic”.
In the case of `COc1ccc(/C=N\NC(=O)[C@H](C)N2C(=O)c3ccccc3C2=O)cc1`, the inhibition entry in series [1] and in series [2] was “Active” throughout.

For the origin of these results see ChEMBL document CHEMBL3580609, “Novel phthalimide derivatives with TNF- and IL-1 expression inhibitory and apoptotic inducing properties” (Medchemcomm, 2014).
